In this assay the target is T1, human recombinant CRF-1 receptor (Homo sapiens, UniProt P34998).
T1 construct: expressed in transfected cells; host or cells: CHO cells (G418-selected)
T1 sequence (P34998 24-415): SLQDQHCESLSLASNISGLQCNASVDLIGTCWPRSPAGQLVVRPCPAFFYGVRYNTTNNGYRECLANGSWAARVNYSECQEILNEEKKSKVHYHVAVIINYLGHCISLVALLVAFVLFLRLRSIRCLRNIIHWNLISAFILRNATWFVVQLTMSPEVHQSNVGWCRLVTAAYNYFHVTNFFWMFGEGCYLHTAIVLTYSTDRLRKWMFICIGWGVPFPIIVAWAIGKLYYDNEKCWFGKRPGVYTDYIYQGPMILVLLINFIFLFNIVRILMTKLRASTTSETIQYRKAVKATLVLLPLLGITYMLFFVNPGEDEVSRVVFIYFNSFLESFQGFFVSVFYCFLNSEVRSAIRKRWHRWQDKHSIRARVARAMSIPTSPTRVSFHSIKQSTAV
In words: CRF-1 receptor antagonism, HTRF cAMP assay in CHO cells in the presence of 1 nM CRF. It counts as cell-based. The settings on record: CHO cells expressing human recombinant CRF-1; inhibition of the effect of 1 nM CRF on cAMP. In general terms: TR-FRET usually uses a lanthanide donor and a delayed reading to cut background.

As to `Cc1cc(C)n(C[C@H]2CC[C@H](NC(=O)c3cc(Cl)cnc3C)CC2)n1` [Example 22.4, 5-Chloro-N-[4-(3,5-dimethyl-pyrazol-1-ylmethyl)-cyclohexyl]-2-methyl-nicotinamide], the IC50 was found to be 350 nM. `Cc1ccc2c(NC[C@H]3CC[C@H](NC(=O)c4cc(C(F)(F)F)ccc4Cl)CC3)n[nH]c2n1` [Example 19.74, Trans-2-chloro-N-(4-((6-methyl-1H-pyrazolo[3,4-b]pyridin-3-ylamino)methyl)cyclohexyl)-5-(trifluoromethyl) benzamide]: the IC50 amounted to 54 nM.

For orientation: IC50 means the concentration at which inhibition is half-maximal.
